Results taken from article PMC5681922, “Systemic Responses of Multidrug-Resistant Pseudomonas aeruginosa and Acinetobacter baumannii Following Exposure to the Antimicrobial Peptide Cathelicidin-BF Imply Multiple Intracellular Targets” (Frontiers in Cellular and Infection Microbiology, 2017).

What was measured:
P. aeruginosa 1409 [1] = assay: Minimal inhibitory concentration (given as multiples of MIC); type: cell-based, Pseudomonas aeruginosa; conditions: MDR clinical isolate; MIC itself not given, only this multiple
P. aeruginosa 1409 [2] = conditions: treated vs untreated, iTRAQ
P. aeruginosa 1409 [3] = assay: Membrane permeabilization assay (propidium iodide); type: cell-based, Pseudomonas aeruginosa; conditions: 1 h at 25°C in LB, then PI 10 μg/mL 30 min, fluorescence microscope
Protocol: Then, PI was added to a final concentration of 10 μg/mL. After 30 min of incubation at 25°C, the cells were washed 3 times with PBS and immediately imaged with a fluorescence microscope (Olympus, Japan) (Yu et al., [2015]).
Figure 3 Bacterial plasma membrane permeabilization assay of cathelicidin-BF. Cathelicidin-BF and levofloxacin were incubated with MDR P. aeruginosa in Luria-Bertani medium at final concentrations of 4 × MIC (minimal inhibitory concentration) or ¼ × MIC. After incubation at 25°C for 1 h, bacteria were collected by centrifugation at 3,000 × g for 5 min and resuspended with PBS. The DNA-binding fluorescent dye PI was added to a final concentration of 10 μg/mL. After 30 min incubation at 25°C, the cells were washed 3 times with PBS and immediately imaged using a fluorescence microscope.

[4] = cathelicidin-BF at 1/2 MIC (4 μg/mL), 37°C, 2 h
[5] = cathelicidin-BF change not categorized as differentially expressed

- 4 × MIC (P. aeruginosa 1409 [1]): 64 µg/mL
- expression of protein Q9I3S7 (likely decarboxylase) (P. aeruginosa 1409 [2]; [4]): overexpressed
- expression of protein Q9HTV3 (3-octaprenyl-4-hydroxybenzoate carboxy-lyase) (P. aeruginosa 1409 [2]; [5]): downregulated
- expression of protein Q9I298 (putative 3-methylglutaconyl-ConA hydratase) (P. aeruginosa 1409 [2]; [5]): downregulated
- integrity of bacterial membranes, PI staining at 4 × MIC (P. aeruginosa 1409 [3]; 4 × MIC (cathelicidin-BF 32 μg/mL, levofloxacin 64 μg/mL)): showed red fluorescence
- integrity of bacterial membranes, PI staining at ¼ × MIC (P. aeruginosa 1409 [3]; ¼ × MIC (cathelicidin-BF 2 μg/mL, levofloxacin 4 μg/mL)): no red dyes were detected
SMILES: C[C@H]1COc2c(N3CCN(C)CC3)c(F)cc3c(=O)c(C(=O)O)cn1c23 [levofloxacin, reference compound]
- expression of protein Q9HVA1 (acetolactate synthase isozyme III small subunit) (P. aeruginosa 1409 [2]; [4]): overexpressed
- expression of protein Q9I5V3 (multifunctional CCA protein) (P. aeruginosa 1409 [2]; levofloxacin change not categorized as differentially expressed): downregulated
